Source: US8748491B2, “Dietary and pharmaceutical compositions containing tricyclic diterpenes and their derivatives and their uses” (priority 2006, dated 2014)
Marks after values point to notes of the source that are not given here.

Columns and labels:
[1] = biological target: T1, human serotonin re-uptake transporter (hSERT) (Homo sapiens, UniProt P31645); assay: Inhibition of tritiated serotonin uptake into transfected HEK-293 cells; type: cell-based; settings: HEK-293 cells expressing hSERT; 20 nM [3H] serotonin, 40 min, 37° C.; mean ± s.e.m.
T1 construct: host or cells: HEK-293
Description: HEK-293 cells stably expressing the human serotonin re-uptake transporter (hSERT) were obtained from R. Blakely, Vanderbilt University, USA. The cells were routinely grown in Dulbecco's Modified Eagle's Medium (Bioconcept) containing 10% fetal calf serum, penicillin, streptomycin, L-glutamine and the antibiotic G418 and passaged by trypsinisation. On the day of assay, cells from 80% confluent flasks were harvested by gentle washing with warm phosphate buffered saline (PBS). […] Serotonin uptake into the cells was determined by addition of radio-labelled [^3H] serotonin (GE Healthcare) at a concentration of 20 nM, and incubation for 40 minutes at 37° C. with gentle shaking. At the end of this time unincorporated label was removed by filtration though Unifilter 96 GF/B plates (Perkin Elmer) using a Tomtec Mach III M cell harvester. The incorporated serotonin retained on the plates was quantified by liquid scintillation counting using Microscint-40/Topcount (Perkin Elmer).

[2] = tested on: mouse; assay: Marble burying test; type: in vivo; settings: for NUMBER OF MARBLES COVERED BY SAWDUST % change from control / NUMBER OF MARBLES COVERED BY SAWDUST mean ± s.e.m.: mouse
Protocol: The method applied here follows that described by Broekkamp et al., supra. Mice (n=15 per treatment group) were individually placed in transparent plastic cages (33×21×18 cm) with 5 cm of sawdust on the floor and 25 marbles (diameter 1 cm) grouped in the centre of the cage. A second, up-turned, cage served as a lid. The number of marbles covered by sawdust (by at least two-thirds) was counted at the end of the 30-minute test period. Tests were performed by investigators blind to the drug treatment protocol.
Prior to testing, all test cages and marbles were “impregnated” by leaving 10 naive mice in each cage for 15 minutes. […]
Data were analysed by comparing treated groups with vehicle control using unpaired Student's t-tests.

[3] = biological target: T2, Monoamine oxidase B (MAO-B) (Homo sapiens, UniProt P27338); assay: Monoamine oxidase B inhibition (benzylamine substrate, H2O2/vanillic acid/HRP readout); type: biochemical; settings: benzylamine 0.5 mM; mean ± s.e.m.; read-out: IC50 [μM] for Inhibition of MAO-B
T2 sequence (P27338 1-520): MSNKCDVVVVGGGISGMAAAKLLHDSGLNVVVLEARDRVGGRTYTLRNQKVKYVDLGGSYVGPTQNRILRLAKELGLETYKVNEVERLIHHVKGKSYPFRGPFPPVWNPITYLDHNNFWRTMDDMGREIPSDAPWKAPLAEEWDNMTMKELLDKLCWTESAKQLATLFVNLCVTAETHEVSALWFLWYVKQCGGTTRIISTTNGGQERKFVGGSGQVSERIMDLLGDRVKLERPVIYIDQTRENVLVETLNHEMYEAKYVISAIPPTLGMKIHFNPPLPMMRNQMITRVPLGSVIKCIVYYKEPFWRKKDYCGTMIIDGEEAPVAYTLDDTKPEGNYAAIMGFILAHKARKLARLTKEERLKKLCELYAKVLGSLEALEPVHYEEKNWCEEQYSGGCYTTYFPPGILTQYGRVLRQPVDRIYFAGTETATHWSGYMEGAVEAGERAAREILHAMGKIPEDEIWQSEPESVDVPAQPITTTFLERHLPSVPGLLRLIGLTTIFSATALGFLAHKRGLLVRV
Protocol: (§1) The organic amines p-tyramine or benzylamine were used as substrates for the Monoamine oxidase A (MAO-A) and B (MAO-B) enzymes respectively. The H2O2 produced by this reaction was quantified by reaction with vanillic acid, catalysed by horse radish peroxidase (HRP).
(§2) The reactions were carried out in polystyrene microtitre plates. The MAO enzymes (final concentration 2 U/ml) were mixed with either p-tyramine (Sigma, final concentration 0.5 mM) or benzylamine (Sigma, final concentration 0.5 mM) as appropriate and the chromogenic solution (containing vanillic acid (Fluka), 4-aminoantipyrine (Fluka) and horse radish peroxidase (Sigma), final concentrations 0.25 mM, 0.125 mM and 1 U/ml respectively) in 0.2 M potassium phosphate buffer, pH 7.6. The reactions were followed in a microtitre plate absorbance reader e.g. Spectramax M5 (Molecular Devices Corporation). Absorbance readings at 495 nm were taken every 15 seconds for 40 minutes and the initial reaction velocities calculated by linear regression using SOFTmaxPro (Molecular Devices Corporation).
(§3) The effect of tricyclic diterpenes and their derivatives according to formula I on the monoamine oxidase enzymes was determined by their inclusion in the assay at a range of concentrations between 0.03 and 100 μM for 10 minutes prior to and during the incubation with substrate. To determine the effect of the compounds on the HRP catalyzed portion of the reaction, the MAO enzyme was replaced by H2O2 (Molecular Probes, final concentration 0.2 mM). The reactions containing MAO-A and MAO-B were both inhibited by tricyclic diterpenes and their derivatives according to formula I in a dose-dependent manner, whilst the control reaction, was unaffected. The measured IC50 values for inhibition of monoamine oxidase activity by carnosic acid, carnosic acid-12-methyl ether and 20-deoxo-carnosol are shown in Table 3.

[4] = biological target: T3, Monoamine oxidase A (MAO-A) (Homo sapiens, UniProt P21397); assay: Monoamine oxidase A inhibition (p-tyramine substrate, H2O2/vanillic acid/HRP readout); type: biochemical; settings: p-tyramine 0.5 mM; mean ± s.e.m.; read-out: IC50 [μM] for Inhibition of MAO-A
T3 sequence (P21397 1-527): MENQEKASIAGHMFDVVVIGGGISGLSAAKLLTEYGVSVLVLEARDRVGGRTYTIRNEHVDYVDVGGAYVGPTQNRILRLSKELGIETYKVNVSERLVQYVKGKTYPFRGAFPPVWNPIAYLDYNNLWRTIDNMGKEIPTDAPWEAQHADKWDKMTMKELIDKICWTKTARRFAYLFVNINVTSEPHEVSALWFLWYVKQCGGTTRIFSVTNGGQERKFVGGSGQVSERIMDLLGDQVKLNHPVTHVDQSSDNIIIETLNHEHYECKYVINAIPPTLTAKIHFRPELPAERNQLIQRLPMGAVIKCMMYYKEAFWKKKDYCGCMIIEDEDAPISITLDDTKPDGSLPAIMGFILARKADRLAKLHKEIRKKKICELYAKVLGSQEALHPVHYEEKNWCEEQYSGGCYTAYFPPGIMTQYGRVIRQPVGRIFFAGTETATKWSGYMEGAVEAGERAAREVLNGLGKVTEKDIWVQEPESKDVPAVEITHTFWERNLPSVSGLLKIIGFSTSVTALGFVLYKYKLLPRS
Protocol: as §1, §2, §3

[5] = tested on: mouse; assay: Light dark box test; type: in vivo; settings: mouse, 32 mg/kg p.o. −1 h
Description: The method, which detects anxiolytic activity, follows that described by Crawley, 1981 Pharmacol. Biochem. Behav., 15:695-699. Anxiolytics increase the time spent in the light compartment.
Animals were placed into the light compartment of a 2-compartment box with one half light and open (25×27×27 cm) and the other half dark and closed (20×27×27 cm). The time spent in each compartment as well as the number of times the animal crosses from one side to the other is scored during a 3-minute test. 15 mice were studied per group. The test was performed blind.
Carnosic acid was evaluated at 3 doses (100, 200, 400 mg/kg BW), administered by oral gavage (p.o.) 24, 5 and 1 hour before the test, and compared with a vehicle control group (corn oil). Carnosic acid was dissolved in corn oil (“vehicle”). Clobazam (32 mg/kg p.o.), administered 1 hour before the test, was used as reference substance. Mice in this group received additional administrations of vehicle at 24 and 5 hours before the test in order to maintain experimental blinding.

[6] = tested on: mouse; assay: Porsolt's forced swim test (FST); type: in vivo
Protocol: Mice were individually placed in cylinders (24.5 cm height, 19.5 cm internal diameter) containing 13.5 cm depth of water (22±0.5° C.) for a period of 6 minutes, behavioural parameters of interest being analysed during the final 4 minutes of the test, since the first 2 minutes include vigorous activity. Six cylinders were placed in a Perspex box, thus enabling six mice to be tested simultaneously.
Automatic monitoring of swim tests was enabled through the use of VideoMot2 software (TSE Technical and Scientific Equipment GmbH, Bad Homburg, Germany). All to experiments were observed via a black and white CCD camera. The rest:locomotion and stop:start thresholds, as determined by setting parameters in the software programme, determine the number of pixels which must change for a movement to be registered, enabling the software to determine whether a mouse is swimming or resting. The parameters which are automatically recorded include: rest time and locomotion time (ms), % rest and % locomotion, distance travelled (cm), speed of travel (cm/s) and number of stops.
Data were analysed by comparing treated groups with the untreated control group using Fisher's PLSD (StatView, SAS Institute Inc., Cary, N.C., USA)

[7] = Table 6, 100 mg/kg i.p. −30 min
[8] = Table 6, 200 mg/kg i.p. −30 min

T1 sequence (P31645 whole entry): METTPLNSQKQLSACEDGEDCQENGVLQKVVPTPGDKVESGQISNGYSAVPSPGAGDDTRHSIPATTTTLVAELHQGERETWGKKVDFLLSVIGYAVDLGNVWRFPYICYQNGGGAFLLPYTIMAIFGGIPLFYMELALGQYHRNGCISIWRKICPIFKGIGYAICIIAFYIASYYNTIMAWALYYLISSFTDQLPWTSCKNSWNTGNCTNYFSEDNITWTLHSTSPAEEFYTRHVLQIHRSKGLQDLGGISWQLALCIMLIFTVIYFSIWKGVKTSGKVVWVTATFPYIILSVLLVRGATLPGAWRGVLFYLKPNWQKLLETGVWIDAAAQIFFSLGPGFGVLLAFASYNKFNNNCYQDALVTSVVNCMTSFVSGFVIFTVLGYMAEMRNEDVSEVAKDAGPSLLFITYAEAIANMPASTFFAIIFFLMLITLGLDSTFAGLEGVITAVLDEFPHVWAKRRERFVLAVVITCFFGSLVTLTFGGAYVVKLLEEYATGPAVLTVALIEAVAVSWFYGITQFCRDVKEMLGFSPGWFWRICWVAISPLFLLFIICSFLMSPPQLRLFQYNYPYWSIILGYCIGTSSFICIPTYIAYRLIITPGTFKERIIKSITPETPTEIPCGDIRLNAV

In the case of 16-hydroxytotarol, the IC50 [1] is reported as 7.4 µM.
Molecule CC(C)c1ccc2c(c1)C(=O)C[C@H]1[C@](C)(C(=O)O)CCC[C@]21C [7-Oxocallitrisic Acid, 7-oxocallitrisic acid] has an IC50 [1] of 32.9 ± 8.6 µM.
For CC(C)c1cc2c(c(O)c1O)[C@@]13CCCC(C)(C)[C@@H]1C[C@@H]2OC3 [20-Deoxo-carnosol, 20-deoxo-carnosol], the “NUMBER OF MARBLES COVERED BY SAWDUST % change from control” value ([2]; Table 6, 30 mg/kg i.p. −30 min) was −24%, the “NUMBER OF MARBLES COVERED BY SAWDUST mean ± s.e.m.” value ([2]; Table 6, 30 mg/kg i.p. −30 min) was 16.7 ± 2.2 and the “NUMBER OF MARBLES COVERED BY SAWDUST % change from control” value [2, 7] was −56%. For the same molecule, the “NUMBER OF MARBLES COVERED BY SAWDUST mean ± s.e.m.” value [2, 7] was 9.7 ± 2.3, the “NUMBER OF MARBLES COVERED BY SAWDUST % change from control” value [2, 8] was −60% and the “NUMBER OF MARBLES COVERED BY SAWDUST mean ± s.e.m.” value [2, 8] was 8.8 ± 2.4. For the same molecule, the “marble burying behaviour (in words)” value ([2]; mouse, 30, 100 and 200 mg/kg i.p.) was “dose-dependently and significantly reduced marble burying behaviour”, the IC50 [3] was 27 ± 7.3 µM and the IC50 [4] was 4.3 ± 1.1 µM. The IC50 [1] was 4.2 ± 0.2 µM.
COc1c(C(C)C)cc2c(c1O)C1(C(=O)O)CCCC(C)(C)C1CC2 (stereo not drawn) [Carnosic acid-12-methylether, carnosic acid 12-methyl ether] showed an IC50 [3] of 83.1 ± 6.8 µM, an IC50 [4] of 40.6 ± 0.25 µM and an IC50 [1] of 22 ± 4.9 µM.
With CN1C(=O)CC(=O)N(c2ccccc2)c2cc(Cl)ccc21 [Clobazam, clobazam, reference compound] the “NUMBER OF CROSSINGS % change from control” value [5] was “+56%” and the “TIME SPENT IN THE LIGHT COMPARTMENT % change from control” value [5] was “+43%”.
With CNCCC(Oc1ccc(C(F)(F)F)cc1)c1ccccc1 (stereo not drawn) [Fluoxetine, fluoxetine, reference compound] the “NUMBER OF MARBLES COVERED BY SAWDUST % change from control” value ([2]; Table 5, 32 mg/kg i.p. −30 min) was −100%, the “NUMBER OF MARBLES COVERED BY SAWDUST mean ± s.e.m.” value ([2]; Table 5, 32 mg/kg i.p. −30 min) was 0.0 ± 0.0 and the “NUMBER OF MARBLES COVERED BY SAWDUST % change from control” value ([2]; Table 6, 32 mg/kg i.p. −30 min) was −100%. For the same molecule, the “NUMBER OF MARBLES COVERED BY SAWDUST mean ± s.e.m.” value ([2]; Table 6, 32 mg/kg i.p. −30 min) was 0.0***.
In the case of CC(C)c1c(O)ccc2c1CC[C@H]1C(C)(C)CCC[C@]21C [Totarol, totarol], the IC50 [1] is reported as 7.5 ± 2.6 µM.
Molecule COC(=O)C1(C)CCCC2(C)c3ccc(O)c(C(C)C)c3CCC12 (stereo not drawn) [Totarol-19-carboxylic acid methyl ester, totarol-19-carboxylic acid methyl ester] has an IC50 [1] of 7.2 µM.
In the case of COc1ccc(C(CN(C)C)C2(O)CCCCC2)cc1 (stereo not drawn) [VENLAFAXINE, venlafaxine, reference compound], the “NUMBER OF MARBLES COVERED BY SAWDUST % change from control” value ([2]; Table 6, 16 mg/kg i.p. −30 min) is reported as −60% and the “NUMBER OF MARBLES COVERED BY SAWDUST mean ± s.e.m.” value ([2]; Table 6, 16 mg/kg i.p. −30 min) is reported as 8.7 ± 2.2.
CN(C)CCCN1c2ccccc2CCc2ccccc21 [imipramine, reference compound] was tested, and the “Duration of immobility (% change from control)” value ([6]; 32 mg/kg i.p., −30 min) was −61% and the “Duration of immobility (% change from control)” value ([6]; 32 mg/kg p.o., −24, −5, −1 h) was −56%.
